Data reported in patent US20260274829A1, “NEW E3 UBIQUITIN LIGASE LIGAND, PROTEIN DEGRADATION AGENT AND USE THEREOF” (GLUETACS THERAPEUTICS (SHANGHAI) CO., LTD., priority 2023, published 2026).

What follows are compounds tested against T1, human Cereblon WT GST-tagged protein (Homo sapiens, UniProt Q96SW2) (assay: CRBN binding, HTRF CEREBLON BINDING kit). Settings: CRBN binding, HTRF CEREBLON BINDING kit.
T1 construct: purchased CISBIO 64BDCRBNPEH
T1 sequence (Q96SW2 whole entry): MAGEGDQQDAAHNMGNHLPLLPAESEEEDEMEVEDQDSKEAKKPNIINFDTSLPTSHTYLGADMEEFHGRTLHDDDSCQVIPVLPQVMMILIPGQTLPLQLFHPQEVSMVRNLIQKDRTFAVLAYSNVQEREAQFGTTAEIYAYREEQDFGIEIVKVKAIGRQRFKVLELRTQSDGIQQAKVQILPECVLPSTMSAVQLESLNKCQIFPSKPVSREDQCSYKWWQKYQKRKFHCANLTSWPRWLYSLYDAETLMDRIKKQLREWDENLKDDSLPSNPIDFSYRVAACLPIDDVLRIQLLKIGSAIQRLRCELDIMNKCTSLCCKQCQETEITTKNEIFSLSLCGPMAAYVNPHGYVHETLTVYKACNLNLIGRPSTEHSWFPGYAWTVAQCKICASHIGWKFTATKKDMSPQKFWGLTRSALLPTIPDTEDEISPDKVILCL
How it was run: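 Binding inhibition was calculated from the 665/620 nm emission ratios, with blank wells and solvent wells as references. Test compounds competed for GST-tagged human Cereblon WT against a Thalidomide-Re reagent paired with GST Eu antibody. Plates were sealed and held at room temperature for 3 hours before the HTRF read.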
With `O=C1CCN(c2ccc(CN3CCC(n4cc(NC(=O)c5cnn6ccc(N7CCOCC7)nc56)c(C(F)F)n4)CC3)cc2)C(=O)N1` [GT-05798, N-(3-(difluoromethyl)-1-(1-(4-(2,4-dioxotetrahydropyrimidin-1(2H)-yl)benzyl)piperidin-4-yl)-1H-pyrazol-4-yl)-5-morpholinopyrazolo[1,5-a]pyrimidine-3-carboxamide] the IC50 was < 0.5 µM.
`Cc1nc2c(F)cc(-c3nc(Nc4ccc(N5CCC(N6CCN(Cc7ccc(N8CCC(=O)NC8=O)cn7)CC6)CC5)cn4)ncc3F)cc2n1C(C)C` [GT-06741, 1-(6-((4-(1-(6-((5-fluoro-4-(4-fluoro-1-isopropyl-2-methyl-1H-benzo[d]imidazol-6-yl)pyrimidin-2-yl)amino)pyridin-3-yl)piperidin-4-yl)piperazin-1-yl)methyl)pyridin-3-yl)dihydropyrimidine-2,4(1H,3H)-dione] was tested, and the IC50 was 0.5 to 1 µM.
With `CN(Cc1ccc(N2CCC(=O)NC2=O)cc1)C1CCN(c2ccc(-c3cc(F)c4c(c3)C(=O)N(C(C(=O)Nc3nccs3)c3ncn5c3CCC5)C4)cc2)CC1` (stereo not shown) [GT-05219, 2-(6,7-dihydro-5H-pyrrolo[1,2-c]imidazol-1-yl)-2-(6-(4-(4-((4-(2,4-dioxotetrahydropyrimidin-1(2H)-yl)benzyl)(methyl)amino)piperidin-1-yl)phenyl)-4-fluoro-1-oxoisoindolin-2-yl)-N-(thiazol-2-yl)acetamide] the IC50 was < 0.5 µM.
Work on `NC(=O)c1ncc(N2CCCCC2)nc1Nc1ccc(C2CCN(Cc3ccc(C4CCC(=O)NC4=O)cc3)CC2)cc1` (stereo not shown) [GT-04785, 3-((4-(1-(4-(2,6-dioxopiperidin-3-yl)benzyl)piperidin-4-yl)phenyl)amino)-5-(piperidin-1-yl)pyrazine-2-carboxamide] yielded an IC50 of 0.5 to 1 µM.
For `O=C1CCN(c2ccc(CN3C[C@H]4C[C@@H]3CN4c3ccc(-c4cc(F)c5c(c4)C(=O)N(C(C(=O)Nc4nccs4)c4ncn6c4CCC6)C5)cc3)cc2)C(=O)N1` (stereo partly drawn) [GT-06177, 2-(6,7-dihydro-5H-pyrrolo[1,2-c]imidazol-1-yl)-2-(6-(4-((1R,4R)-5-(4-(2,4-dioxotetrahydropyrimidin-1(2H)-yl)benzyl)-2,5-diazabicyclo[2.2.1]heptan-2-yl)phenyl)-4-fluoro-1-oxoisoindolin-2-yl)-N-(thiazol-2-yl)acetamide], the IC50 was < 0.5 µM.
Work on `COc1cc2nn(C3CCN(Cc4ccc(C5CCC(=O)NC5=O)cc4)CC3)cc2cc1NC(=O)c1cccc(C(F)(F)F)c1` (stereo not shown) [GT-04747, N-(2-(1-(4-(2,6-dioxopiperidin-3-yl)benzyl)piperidin-4-yl)-6-methoxy-2H-indazol-5-yl)-3-(trifluoromethyl)benzamide] yielded an IC50 of 0.5 to 1 µM.
`COc1cc(N2CCN(Cc3cccc(N4CCC(=O)NC4=O)c3)CC2)ccc1Nc1ncc(Cl)c(Nc2ccccc2P(C)(C)=O)n1` [GT-07348, 1-(3-((4-(4-((5-chloro-4-((2-(dimethylphosphoryl)phenyl)amino)pyrimidin-2-yl)amino)-3-methoxyphenyl)piperazin-1-yl)methyl)phenyl)dihydropyrimidine-2,4(1H,3H)-dione] showed an IC50 of 1 to 1.9 µM.
With `CC(C)n1nc(N2CCC(N3CCN(Cc4cccc(N5CCC(=O)NC5=O)c4)CC3)CC2)c2cnc(Nc3ccnc(-c4cnn(S(=O)(=O)C5CC5)c4)n3)cc21` [GT-06080, 1-(3-((4-(1-(6-((2-(1-(cyclopropylsulfonyl)-1H-pyrazol-4-yl)pyrimidin-4-yl)amino)-1-isopropyl-1H-pyrazolo[4,3-c]pyridin-3-yl)piperidin-4-yl)piperazin-1-yl)methyl)phenyl)dihydropyrimidine-2,4(1H,3H)-dione] the IC50 was 0.5 to 1 µM.
For `O=C1CCC(Nc2cccc(CN3CCN(c4ccc(Nc5ncc6nc(Nc7ccccc7)n(C7CCCC7)c6n5)cc4)CC3)c2)C(=O)N1` (stereo not shown) [GT-05841, 3-((3-((4-(4-((9-cyclopentyl-8-(phenylamino)-9H-purin-2-yl)amino)phenyl)piperazin-1-yl)methyl)phenyl)amino)piperidine-2,6-dione], the IC50 was < 0.5 µM.
`Cc1nc2c(F)cc(-c3nc(Nc4ccc(N5CCC(N(C)Cc6ccc(C7CCC(=O)NC7=O)cc6)CC5)cn4)ncc3F)cc2n1C(C)C` (stereo not shown) [GT-06735, 3-(4-(((1-(6-((5-fluoro-4-(4-fluoro-1-isopropyl-2-methyl-1H-benzo[d]imidazol-6-yl)pyrimidin-2-yl)amino)pyridin-3-yl)piperidin-4-yl)(methyl)amino)methyl)phenyl)piperidine-2,6-dione] gave an IC50 of 0.5 to 1 µM.
For `O=C1CCN(c2ccc(CN3CCC(n4cc(NC(=O)c5cnn6ccc(N7C[C@H]8C[C@@H]7CO8)nc56)c(C(F)F)n4)CC3)nc2)C(=O)N1` [GT-05053, 5-((1R,4R)-2-oxa-5-azabicyclo[2.2.1]heptan-5-yl)-N-(3-(difluoromethyl)-1-(1-((5-(2,4-dioxotetrahydropyrimidin-1(2H)-yl)pyridin-2-yl)methyl)piperidin-4-yl)-1H-pyrazol-4-yl)pyrazolo[1,5-a]pyrimidine-3-carboxamide], the IC50 was 0.5 to 1 µM.
`O=C1CCN(c2cccc(CN3C[C@H]4C[C@@H]3CN4c3ccc(-c4cc(F)c5c(c4)C(=O)N(C(C(=O)Nc4nccs4)c4ncn6c4CCC6)C5)cc3)c2)C(=O)N1` (stereo partly drawn) [GT-06178, 2-(6,7-dihydro-5H-pyrrolo[1,2-c]imidazol-1-yl)-2-(6-(4-((1R,4R)-5-(3-(2,4-dioxotetrahydropyrimidin-1(2H)-yl)benzyl)-2,5-diazabicyclo[2.2.1]heptan-2-yl)phenyl)-4-fluoro-1-oxoisoindolin-2-yl)-N-(thiazol-2-yl)acetamide] was tested, and the IC50 was < 0.5 µM.
`O=C1CCN(c2cccc(CN3CCC(N4CCN(c5ccc6c(c5)nc(NC(=O)c5cccc(C(F)(F)F)c5)n6[C@H]5CC[C@@H](CO)CC5)CC4)CC3)c2)C(=O)N1` [GT-05022, N-(5-(4-(1-(3-(2,4-dioxotetrahydropyrimidin-1(2H)-yl)benzyl)piperidin-4-yl)piperazin-1-yl)-1-((1s,4s)-4-(hydroxymethyl)cyclohexyl)-1H-benzo[d]imidazol-2-yl)-3-(trifluoromethyl)benzamide] gave an IC50 of 1 to 1.9 µM.
Work on `COc1cc(N2CCC(N(C)Cc3ccc(N4CCC(=O)NC4=O)cn3)CC2)c(C)cc1Nc1ncc(Br)c(Nc2ccc3nccnc3c2P(C)(C)=O)n1` [GT-05952, 1-(6-(((1-(4-((5-bromo-4-((5-(dimethylphosphoryl)quinoxalin-6-yl)amino)pyrimidin-2-yl)amino)-5-methoxy-2-methylphenyl)piperidin-4-yl)(methyl)amino)methyl)pyridin-3-yl)dihydropyrimidine-2,4(1H,3H)-dione] yielded an IC50 of 0.5 to 1 µM.
For `CCc1cc2c(cc1N1CCC(N3CCN(Cc4cccc(N5CCC(=O)NC5=O)c4)CC3)CC1)C(C)(C)c1[nH]c3cc(C#N)ccc3c1C2=O` [GT-07310, 8-(4-(4-(3-(2,4-dioxotetrahydropyrimidin-1(2H)-yl)benzyl)piperazin-1-yl)piperidin-1-yl)-9-ethyl-6,6-dimethyl-11-oxo-6,11-dihydro-5H-benzo[b]carbazole-3-carbonitrile], the IC50 was 0.5 to 1 µM.
`CN(Cc1ccc(C2CCC(=O)NC2=O)cn1)C1CCN(c2ccc(-c3cc(F)c4c(c3)C(=O)N(C(C(=O)Nc3nccs3)c3ncn5c3CCC5)C4)cc2)CC1` (stereo not shown) [GT-07385, 2-(6,7-dihydro-5H-pyrrolo[1,2-c]imidazol-1-yl)-2-(6-(4-(4-(((5-(2,6-dioxopiperidin-3-yl)pyridin-2-yl)methyl)(methyl)amino)piperidin-1-yl)phenyl)-4-fluoro-1-oxoisoindolin-2-yl)-N-(thiazol-2-yl)acetamide] was tested, and the IC50 was < 0.5 µM.
